In one data set the test system is sarcoma 37. Kind of data set: Antitumor activity, life prolongation, sarcoma 37. The class given is in vivo, mice. The method, then:
(§1) Apart from the tests on Ehrlich ascitic tumor, giniquine was studied on twelve more inoculated tumors. Seven tumors (melanoma B16, sarcoma AK, large intestine carcinoma acatol-1, sarcoma 180, adenocarcinoma 755, Lewis lung carcinoma and sarcoma 37) were inoculated subcutaneously with 50 mg of tumoral cells per mouse. Four tumors (lymphatic leukemies L 5178, L 5178Y, L 1210 and P-388) were inoculated intraperitoneally with 10^6 cells per mouse. One tumor (La, hemocytoblastosis) was inoculated intraperitoneally by injecting 50 mg of cell suspension of spleen and liver of mice suffering La hemocytoblastosis, per mouse. Giniquine was injected intraperitoneally five times for seven days: 1,2,3,4,7 days or 3,4,5,6,7 days after the implantation of tumor. The rate of deceleration of the tumor growth was established 14 days after the ultimate injection of giniquine; life of test animals was recorded for 60 days.

For data set [1], the system named is lymphatic leukemia L 5178. Put plainly: Antitumor activity, life prolongation, lymphatic leukemia L 5178. It counts as in vivo, mice. The method, then:
as §1

Data set [2] relates to Ehrlich ascitic tumor. Kind of data set: Antitumor activity, life prolongation of mice with Ehrlich ascitic tumor. It counts as in vivo. Here is the method: The experiment was conducted as follows. 10^6 cells of Erlich tumuor were injected in common white mice intraperitoneally, the dose being given per each animal. […] Each dose of the preparation was tested in six mice. The control group included 18 mice. Giniquine solution was prepared by dissolving the substance ex tempore in distilled water or in a buffer. The effect of the preparation is shown on charts 1,2,3.

A further data set deals with sarcoma AK. Put plainly: Antitumor activity, sarcoma AK. The class given is in vivo, mice. The method, then:
as §1

Another data set has as its system acatol-1. Put plainly: Antitumor activity, large intestine adenocarcinoma acatol-1. The class given is in vivo, mice. The method, then:
as §1

The test system of a further data set is La hemocytoblastosis. Put plainly: Antitumor activity, La hemocytoblastosis. It counts as in vivo, mice. The following applies: 10 mg/kg. Here is the method:
as §1

The next data set concerns Lewis lung carcinoma. Put plainly: Antitumor / antimetastatic activity, Lewis lung carcinoma. The class given is in vivo, mice. The following applies: daily doses of 6 and 10 mg/kg. Here is the method:
as §1

A further data set concerns sarcoma 180. Kind of data set: Antitumor activity, sarcoma 180. It counts as in vivo, mice. The method, then:
as §1

The next data set deals with melanoma B16. Kind of data set: Antitumor activity, melanoma B16. It counts as in vivo, mice. As to conditions: 17 mg/kg. The method, then:
as §1, with “Giniquine was injected intraperitoneally five times for seven days: 1,2,3,4,7 days or 3,4,5,6,7 days after the implantation of tumor.” left out

Data set [3] concerns Jensen sarcoma. Kind of data set: Growth deceleration / antitumor activity, Jensen sarcoma. The following applies: peroral administration. It counts as in vivo. From the text: (§2) An antiblastic effect is caused by products of condensation of aldehydes of the nitrofuran series with (β-hydrazinoethyl)pyridine, 3-hydrazino-4-amino-1,2,4-triazole [Giller S. A., Kalnberga R. Yu., Zidermane A. A. et al. In the book "Methods of Synthesis and Search for Antitumor Preparations" (in Russian). Iss. 2. M. 1967. pp. 75-81; Giller S. A. et al. In the book "Furozolidine". (in Russian). Riga, 1962. pp. 5-18; Duavarte A. Zh., Zidermane A. A., Kravchenko I. M. et al. In the book "Proceedings of the 1st All-Union Conference on Chemotherapy of Malignant Tumors." Riga. 1968. pp. 216-217; Duavarte A. Zh. et al. In the book "Antitumor Compounds of the 5-nitrofuran Series." (in Russian). Riga, 1972. pp. 17-30)] and 5-aminobenzimidazol [Fuska J., Fuskova A., Jurasek A. "Neoplasma (Bratisl.)". 1973. v. 20. pp. 171-179].
(§3) "J. Pharm. Soc. Japan." 1964, 84(6). pp. 537-543; K. Miura, I. Okada. "Chem. Pharm. Bull." 1965. 13 (15). pp. 525-528].

The next data set has as its system Pliss lymphosarcoma. Kind of data set: Antitumor activity, Pliss lymphosarcoma. The following applies: peroral administration. The class given is in vivo.
Description: as §3

Data set [4] relates to Walker carcinosarcoma. Put plainly: Growth deceleration / antitumor activity, Walker carcinosarcoma. The class given is in vivo. As to conditions: peroral administration.
Description: as §2, §3

The conditions of data set [5]: in vivo; cited from earlier work.
Data set [6] has as its system Ehrlich ascitic tumor. Put plainly: Influence of fluorafur on antitumor activity of giniquine, Ehrlich ascitic tumor. It counts as in vivo, mice. Here is the method: In some experiments the influence of the known preparation fluorofur on the antitumoral activity of giniquine was studied. […] The tests were made on Ehrlich ascitic tumor. The preparations were injected 1,2,3,4 and 7 days after the implantation of tumor. Giniquine was injected intraperitoneally and fluorafur-subcutaneously.
giniquine was injected intraperitoneally, and fluorafursubcutaneously.

Another data set has as its system adenocarcinoma 755. Kind of data set: Antitumor activity, adenocarcinoma 755. It counts as in vivo, mice. As to conditions: daily doses of 10 and 17 mg/kg. Here is the method:
as §1

Data set [7] deals with Walker carcinosarcoma. As to conditions: cited from earlier work.
The test system of data set [8] is Jensen sarcoma. The following applies: cited from earlier work.
For data set [9] the following is noted: in vivo; cited from earlier work. The source holds these as a separate data set.

Molecules are shown by their SMILES.

The values that follow come from patent US4201784A, “Substituted 2-[2'-(5"-nitrofuryl-2")vinyl-and 4'-(5"-nitrofuryl-2"-1,3-butadieryl]quinoline-4-carboxylic acid amides and salts thereof” (Institut Organicheskogo Sinteza Akademii Nauk Latviiskoi SSR, priority 1977, dated 1980).

Turning to `O=C(NCCCO)c1cc(C=Cc2ccc([N+](=O)[O-])o2)nc2ccccc12` [2-[2'-(5"-nitrofuryl-2")vinyl]quinoline-4-carboxylic acid (γ-hydroxypropyl)amide], the prolongation of life in the data set with sarcoma 37 (12.5 mg/kg) is 90%; in [1] (lymphatic leukemia L 5178), “up to 40%”; with Ehrlich ascitic tumor [2] (7.5 mg/kg to 12.5 mg/kg, five injections) it was “up to 120%”; in the data set with sarcoma AK (2.8 mg/kg), “up to 20%”.

Take `O=C(NCCCO)c1cc(C=CC=Cc2ccc([N+](=O)[O-])o2)nc2ccccc12` [[4'-(5"-nitrofuryl-2")-1,3-butadienyl]quinoline-4-carboxylic acid (γ-hydroxypropyl)amide]: the prolongation of life entry in [1] (1 mg/kg) is given as “up to 40%”; in the data set on Ehrlich ascitic tumor [2] (17 mg/kg), “up to 80%”; in the data set on acatol-1 (10 mg/kg), “about 20%”; with La hemocytoblastosis, “about 20%”.

With `CCN(CC)CCCC(C)NC(=O)c1cc(C=Cc2ccc([N+](=O)[O-])o2)nc2ccccc12` (stereo not drawn) [2-[2'-(5"-nitrofuryl-2")vinyl]quinoline-4-carboxylic acid (α-methyl-δ-diethylaminobutyl)amide], the prolongation of life in the data set with Lewis lung carcinoma was 30%; in data set [1] (6 to 28 mg/kg), 30 to 140%; in the data set with Ehrlich ascitic tumor [2] (three injections, 10 and 17 mg/kg), 70 to 130%; with sarcoma 180 (sarcoma 180), “up to 20%”; with sarcoma AK (sarcoma AK) it was “up to 20%”; with melanoma B16, “up to 25%”.

In the case of `NC(=O)c1cc(C=Cc2ccc([N+](=O)[O-])o2)nc2ccccc12` [2-[2'-(5"-nitrofuryl-2")vinyl]quinoline-4-carboxylic acid amide], the antitumor activity entry in the data set with Jensen sarcoma [3], in the data set with Pliss lymphosarcoma and with Walker carcinosarcoma [4] was “not found any antitumor activity” in each case. In addition, the antitumoral activity result in data set [5] is recorded as “a very narrow range of antitumoral activity”.

With `O=c1[nH]c(=O)n(C2CCCO2)cc1F` (stereo not shown) [fluorafur, reference compound], the Life prolongation is recorded as 35% in the data set on Ehrlich ascitic tumor [6] (Test No. 1, fluorafur 39.0 mg/kg daily); 37% in the data set on Ehrlich ascitic tumor [6] (Test No. 1, fluorafur 65.0 mg/kg daily); 40% in the data set on Ehrlich ascitic tumor [6] (Test No. 1, fluorafur 108.0 mg/kg daily); 52% with Ehrlich ascitic tumor [6] (Test No. 1, fluorafur 180.0 mg/kg daily); 18% in the data set with Ehrlich ascitic tumor [6] (Test No. 2, fluorafur 39.0 mg/kg daily); -5% with Ehrlich ascitic tumor [6] (Test No. 2, fluorafur 65.0 mg/kg daily). Moreover, the Life prolongation was -17% in the data set on Ehrlich ascitic tumor [6] (Test No. 2, fluorafur 108.0 mg/kg daily) and -33% with Ehrlich ascitic tumor [6] (Test No. 2, fluorafur 180.0 mg/kg daily).

Take `CCN(CC)CCCC(C)NC(=O)c1cc(C=Cc2ccc([N+](=O)[O-])o2)nc2ccccc12` (stereo not drawn) [2-[2'-(5"-nitrofuryl-2")vinyl]quinoline-4-carboxylic acid (α-methyl-δ-diethylaminobutyl)amide diphosphate]: the prolongation of life result in the data set with adenocarcinoma 755 was “up to 20%”; in data set [1] (lymphatic leukemia), “up to 130%”; with Ehrlich ascitic tumor [2] (3-5 intraperitoneal injections, daily doses 10 to 28 mg/kg), 140 to 180%; with sarcoma 180 (daily doses of 10 and 17 mg/kg), “up to 20%”.

With `O=P1(N(CCCl)CCCl)NCCCO1` (stereo not shown) [cyclophosphane, reference compound], the “increase in mice life” value in the data set on Ehrlich ascitic tumor [2] (Ehrlich ascitic tumor) was 0%.

In the case of `CCN(CC)CCCC(C)NC(=O)c1cc(C=CC=Cc2ccc([N+](=O)[O-])o2)nc2ccccc12` (stereo not drawn) [2-[4'-(5"-nitrofuryl-2")-1,3-butadienyl]quinoline-4-carboxylic acid (α-methyl-δ-diethylaminobutyl)amide diphosphate], the prolongation of life result in the data set with sarcoma 37 (daily dose of 17 mg/kg, intraperitoneal) is “up to 120%”; in the data set on Ehrlich ascitic tumor [2] (doses of 3.6-10 mg/kg) it was 60 to 160%. In addition, the “antiblastic activity / sensitivity (in words)” value in data set [1] (lymphatic leukemia L 5178) is “a certain sensitivity”. For the same molecule, the “antitumor effect / sensitivity (in words)” value with acatol-1 (acatol-1) and in the data set on sarcoma 180 (sarcoma 180) was “a certain sensitivity” each time.

As for `O=[N+]([O-])c1ccco1` [Example 5-nitrofuran, 5-nitrofuran], the deceleration of growth in the data set on Walker carcinosarcoma [7] and in the data set with Jensen sarcoma [8] was 39-51% in each case.

Turning to `O=Cc1ccc([N+](=O)[O-])o1` [5-nitrofurfural], the “activity compared with 5-nitrofuran” value in the data set on Walker carcinosarcoma [7] and in the data set on Jensen sarcoma [8] was “about the same activity” throughout. For the same molecule, the “acute toxicity compared with 5-nitrofuran” value in [9] was “a higher acute toxicity”.

`CCN(CC)CCCC(C)NC(=O)c1cc(C=Cc2ccc([N+](=O)[O-])o2)nc2ccccc12` (stereo not drawn) [2-[2'-(5"-nitrofuryl-2")vinyl]quinoline-4-carboxylic acid (α-methyl-δ-diethylaminobutyl)amide chloride]: the prolongation of life in the data set on Ehrlich ascitic tumor [2] (single intraperitoneal injection, 6 mg/kg, 7 days after inoculation) turned out to be 85%.

In the case of `CCN(CC)CCCC(C)NC(=O)c1cc(C=Cc2ccc([N+](=O)[O-])o2)nc2ccccc12` (stereo not drawn) [2-[2'-(5"-nitrofuryl-2")vinylquinoline]-4-carboxylic acid (α-methyl-δ-diethylaminobutyl)amide dibromide], the prolongation of life in the data set on Ehrlich ascitic tumor [2] (single intraperitoneal injection, 28 mg/kg, 7 days after inoculation) is 85%.
